According to patent publication US20260209260A1, “VECTORIZED NHC IRIDIUM(III) COMPLEXES AND USE THEREOF IN PHOTODYNAMIC THERAPY AND/OR DIAGNOSTIC” (CENTRE NATIONAL DE LA RECHERCHE SCIENTIFIQUE, priority 2022, published 2026):
Several values for one entry are separate records, joined by “and”; a condition that tells them apart may be missing. Equal values may be shown once. Read-outs that look alike come from different tables or passages of the source.

How the values were obtained:
Test in all cases: Cell viability assay (MTT), dark and blue light
Assay type in all cases: cell-based, Human
A549 lung cancer cells = settings: for SI (vs NIH-3T3) A549 Blue: blue light 458 nm; for Photosensitizing index (PI) A549: dark vs blue light 458 nm
Procedure, shortened: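 MTT read-out at 570 nm after DMSO solubilization of formazan, 3–4 h MTT at 37 °C, 5% CO2. Treatment lasted 72 h, either fully in the dark or with 10 min irradiation after 8 h of dark incubation. Final DMSO fixed at 0.1% (v/v).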

MCF7 breast cancer cells = settings: for Photosensitizing index (PI) MCF7: dark vs blue light 458 nm
Procedure, shortened: (§1)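 Seeded cells attached overnight, were exposed to complexes for 8 h, received 10 min of 458 nm blue light (9.6 W LED array), then stayed in the dark until 72 h; parallel plates were kept dark throughout. MTT for 3 to 4 h, DMSO solubilization, absorbance at 570 nm.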

[1] = test system: MGHU3 bladder cancer cells; settings: for SI (vs MC3T3) MGHU3 Blue / SI (vs NIH-3T3) MGHU3 Blue: blue light 458 nm; for Photosensitizing index (PI) MGHU3: dark vs blue light 458 nm
Procedure, shortened: as §1

[2] = 8 h in the dark, blue light 458 nm 10 min, then dark up to 72 h, read-out: GI50 A549 Blue
[3] = in the dark, 72 h, read-out: GI50 A549 Dark
[4] = 8 h in the dark, blue light 458 nm 10 min, then dark up to 72 h, read-out: GI50 MCF7 Blue
[5] = in the dark, 72 h, read-out: GI50 MCF7 Dark
[6] = 8 h in the dark, blue light 458 nm 10 min, then dark up to 72 h, read-out: GI50 MGHU3 Blue
[7] = in the dark, 72 h, read-out: GI50 MGHU3 Dark

Compound | GI50 (A549 lung cancer cells; [2]) | SI (vs NIH-3T3) A549 Blue (A549 lung cancer cells) | SI (vs NIH-3T3) A549 Dark (A549 lung cancer cells) | Photosensitizing index (PI) A549 (A549 lung cancer cells) | GI50 (A549 lung cancer cells; [3]) | GI50 (MCF7 breast cancer cells; [4]) | SI (vs NIH-3T3) MCF7 Blue (MCF7 breast cancer cells; blue light 458 nm) | SI (vs MC3T3) MCF7 Dark (MCF7 breast cancer cells) | SI (vs NIH-3T3) MCF7 Dark (MCF7 breast cancer cells) | Photosensitizing index (PI) MCF7 (MCF7 breast cancer cells) | GI50 (MCF7 breast cancer cells; [5]) | GI50 [1, 6] | SI (vs MC3T3) MGHU3 Blue [1] | SI (vs NIH-3T3) MGHU3 Blue [1] | SI (vs MC3T3) MGHU3 Dark ([1]; dark) | SI (vs NIH-3T3) MGHU3 Dark ([1]; dark) | Photosensitizing index (PI) MGHU3 [1] | GI50 [1, 7] | SI (vs MC3T3) A549 Dark (A549 lung cancer cells) | SI (vs MC3T3) MCF7 Blue (MCF7 breast cancer cells; blue light 458 nm)
COC(=O)c1ccc2[n+](c1)[Ir-3]13([c]4ccccc4-2)([c]2ccccc2-c2ccc(C(=O)OC)c[n+]21)[c]1n(CCCNC(=O)CCCC[C@@H]2SC[C@@H]4NC(=O)N[C@@H]42)cc[n+]1-c1cccc[n+]13.F[P-](F)(F)(F)(F)F [I-e] | 21.6 µM | 6.3 | >2.3 | 5.0 | 107 µM | 12.2 µM | 11.1 | 0.4 | >1.7 | 11.9 | 145 µM | 17.8 µM | 2.3 | 7.8 | <1 | >2.5 | >5.6 | > 100 µM | – | –
F[P-](F)(F)(F)(F)F.O=C(CCCC[C@@H]1SC[C@@H]2NC(=O)N[C@@H]21)NCCCn1cc[n+]2[c]1[Ir-3]13([c]4ccccc4-c4ccc5ccccc5[n+]41)([c]1ccccc1-c1ccc4ccccc4[n+]13)[n+]1ccccc1-2 [I-g] | 1.5 µM | 41.1 | 12.1 | 6.1 | 9.1 µM | 2.2 µM | 28.0 | 4.0 | – | 6.3 | 13.8 µM | 4.3 µM | – | 14.3 | 2.2 | – | 5.9 | 25.4 µM | 6.1 | 14.3
F[P-](F)(F)(F)(F)F.O=C(CCCC[C@@H]1SC[C@@H]2NC(=O)N[C@@H]21)NCCCn1cc[n+]2[c]1[Ir-3]13([c]4ccccc4-c4c5ccccc5cc[n+]41)([c]1ccccc1-c1c4ccccc4cc[n+]13)[n+]1ccccc1-2 [I-h] | 0.8 µM and 0.6 µM | – | – | 21.8 | 13.1 µM | 0.99 µM | – | – | 8.6 | 12.0 | 11.9 µM | 1.6 µM | – | – | 1.8 | – | 16.7 | 26.7 µM | 3.2 | –
F[P-](F)(F)(F)(F)F.O=C(CCCC[C@@H]1SC[C@@H]2NC(=O)N[C@@H]21)NCCCn1cc[n+]2[c]1[Ir-3]13([c]4ccccc4-c4sc5ccccc5[n+]41)([c]1ccccc1-c1sc4ccccc4[n+]13)[n+]1ccccc1-2 [I-k] | 1.2 µM | – | – | 10.2 | 12.2 µM | 1.5 µM | 20.7 | 1.7 | – | 9.9 | 14.9 µM | 2.9 µM | 6.8 | 10.7 | – | – | 15.9 | 46.1 µM | 2.1 | –
